Source: paper PMC11873616 (Acta Pharmaceutica Sinica. B, 2024)

What was measured:
IEC6 cells [1] = assay: Fibrosis/EMT-related gene and protein expression in TGFβ1-induced EMT cell model; type: cell-based, rat; details: for expression of fibrotic genes and proteins (Vimentin, αSMA): TGFβ1, oxamate 20 mmol/L, DCA 20 mmol/L or rotenone 10 nmol/L
Smad2 or Smad3 = assay: Smad2/Smad3 phosphorylation after lactate treatment; type: cell-based
IEC6 cells [2] = assay: Histone lactylation; type: cell-based, rat; details: exogenous lactate, Western blot, n = 3
IEC6 cells [3] = assay: Lactate determination in cell culture supernatant; type: cell-based, rat; details: TGFβ1 10 ng/mL, 2DG 1 mmol/L, 7 days, n = 6
IEC6 cells [4] = assay: Glycolysis and metabolic gene expression in TGFβ1-induced cells; type: cell-based, rat; details: TGFβ1 + 2DG vs TGFβ1, n = 7–8

Question: `CC(O)C(=O)O` (stereo not drawn) [lactate] was tested. Which “expression of fibrotic genes after lactate stimulation (qRT-PCR)” value (IEC6 cells [1]; lactate 10 mmol/L for 72 h, no TGFβ1, n = 6) did it give?
Answer: Its value is “significantly elevated”.

Question: And the “phosphorylation of Smad2 or Smad3” value (Smad2 or Smad3)?
Answer: The value was “did not alter”.

Question: What about the “site-specific histone lactylation (H2BK16la, H3K9la, H3K18la, H4K5la and H4K12la)” value (IEC6 cells [2]) of the same compound?
Answer: The value was “induced overwhelming lactylation modifications”.

Question: Which results are given for `O=CC[C@@H](O)[C@H](O)[C@H](O)CO` [Peptide 2DG, 2-Deoxy-D-glucose]?
Answer: lactate levels (TGFβ1-mediated extracellular lactate production) (IEC6 cells [3]): substantial reduction; expression of fibrotic genes and proteins (IEC6 cells [1]; TGFβ1 10 ng/mL, 2DG 1 mmol/L, 7 days): substantial reduction; glycolysis (GSEA-KEGG of gene expression) (IEC6 cells [4]): effectively inhibited glycolysis

Question: For `NC(=O)C(=O)O` [oxamate], which “expression of fibrotic genes and proteins (Vimentin, αSMA)” value (“expression … (Vimentin, αSMA)” below) (IEC6 cells [1]) is on record?
Answer: The value was “more pronounced reduction”.

Question: How did the “expression … (Vimentin, αSMA)” value (IEC6 cells [1]) turn out when `O=C(O)C(Cl)Cl` [DCA, sodium dichloroacetate] was run?
Answer: The value was “more pronounced reduction”.

Question: For `C=C(C)[C@H]1Cc2c(ccc3c2O[C@@H]2COc4cc(OC)c(OC)cc4[C@@H]2C3=O)O1` [rotenone], which “expression … (Vimentin, αSMA)” value (IEC6 cells [1]) is on record?
Answer: Its value is “increased the expression of fibrotic genes”.
